{"source": "patent US20220226500A1", "about": "“FULLERENIC ELLAGIC LUTEOLIN AND METHODS” (Sinapu LLC, priority 2021, published 2022)", "origin": "cited, not measured here", "key": {"[1]": {"details": "in water"}, "[2]": {"details": "human body"}}, "data": [{"smiles": "O=c1oc2c(O)c(O)cc3c(=O)oc4c(O)c(O)cc1c4c23", "note": "[ellagic acid]", "values": [{"measurement": "solubility", "setting": "[1]", "value": "0.0097 grams per liter of water"}, {"measurement": "time in which more than half of the absorbed blood plasma level is broken down", "setting": "[2]", "value": "within one hour"}]}]}
